Measurements from patent publication US20160151461A1, “Cardio-Metabolic and Vascular Effects of GLP-1 Metabolites” (THE TRUSTEES OF THE UNIVERSITY OF PENNSYLVANIA, priority 2013, published 2016).
No end group written: not given here.

How the values were obtained:
[1] = tested on: conscious, chronically instrumented dogs; test: rapid pacing induced stress (72 hour) in conscious, chronically instrumented dogs, hemodynamic measurements; assay type: in vivo; details: 72 hours rapid pacing stress, vs sham vehicle
Text: FIG. 7 illustrates characteristic instrumentation of conscious, chronically instrumented dogs studied in the laboratory. Under sterile surgical technique, the animals are instrumented as indicated and allowed to recover fully from their surgery. LV, aortic, and left atrial catheters were used to measure pressures. LV Konigsberg® transducer was used to measure isovolumic contractility and relaxation as measures of systolic and diastolic function. Ultrasonic dimension crystals were used to measure LV shortening and LV filling rates. Pacing leads were attached to the left atrial appendage. Transonics® flow probes were placed around the left circumflex coronary artery and right renal artery to measure coronary and renal blood flow.
Experiments were performed where 25 conscious, chronically instrumented dogs (FIG. 7) were subjected to a rapid pacing induced stress which recapitulates the hemodynamic perturbations experienced by patients with sudden onset of paroxysmal atrial fibrillation (FIG. 8). Dogs were studied before and daily during the 72 hour pacing stress. […] All measurements were made during intrinsic sinus rhythm 20-30 minutes after cessation of pacing. Hemodynamic measurements included: • LV systolic and diastolic pressures, mean arterial pressures, heart rate • Systolic function: LV contractility (systolic contractile function), LV fractional shortening • Diastolic function: LV isovolumic relaxation time constant, LV filling rate • Flows: systemic, coronary and renal blood flows

[2] = tested on: AMP kinase; test: isolated isovolumic rat heart, activation of AMP kinase; details: for AMPK activation in presence of EXE (inhibits activation of the GLP-1 receptor): with EXE; for AMPK activation in presence of pertussus toxin (PTX): with PTX (Gi); for AMPK activation in presence of STO609 (CAM kinase): with STO609
Text: It is largely unknown how GLP-1 stimulates glucose uptake independent of insulin. A candidate mechanism involves the activation of AMP kinase which causes GLUT translocation and glucose uptake independent of insulin. The isolated isovolumic rat heart was studied as a model in which myocardial specific responses can be observed (FIG. 4).

[3] = tested on: myocardium; donor organs; test: myocardial glucose uptake and preconditioning of donor organs against ischemic injury (summary statement)
[4] = tested on: conscious chronically instrumented dogs with pacing induced heart failure; test: pacing induced model of dilated cardiomyopathy in conscious chronically instrumented dogs (72 hours of rapid ventricular pacing); assay type: in vivo; details: after 72 hours of rapid ventricular pacing, vs Control
Method: In order to compare the vasoactive effects of different classes of incretins, experiments were designed to study the pacing induced model of dilated cardiomyopathy in conscious chronically instrumented dogs (FIG. 3). These animals were instrumented to examine the effects of equal concentrations of various classes of incretins on coronary blood flow and renal blood flow. All dogs underwent 72 hours of rapid ventricular pacing following which coronary flow responses were measured (Control). Rapid pacing was associated with 30-35% declines in coronary blood flow and renal blood flow respectively. […] This supports the notion that the native peptide and active metabolites have vasoactive as well as glucose-stimulatory properties. The renal vascular effects support the claims for use in heart failure complicated by renal failure (cardio-renal syndrome). The coronary vasodilator properties support the claims for the use in acute coronary syndromes and microvascular angina.

[5] = in vivo; cited from earlier work
[6] = tested on: patients with advanced heart failure; details: 5 weeks of continuous infusion, NYHA Class IIIB and IV; cited from earlier work
[7] = tested on: advanced heart failure; details: cited from earlier work
[8] = tested on: patients with mild heart failure; details: infused for 48 hours, NYHA Class II; cited from earlier work
[9] = tested on: large animal models of advanced heart failure; details: cited from earlier work
[10] = tested on: normal, conscious, chronically instrumented dogs; test: hyperglycemic clamp studies in normal, conscious, chronically instrumented dogs; assay type: in vivo
Method: To determine the effect of GLP-1 (32-36) on coronary blood flow, hyperglycemic clamp studies were conducted in normal, conscious, chronically instrumented dogs (n=3), in which plasma glucose was raised to 180 mg/dl by continuous infusion of glucose (FIG. 1). The plasma glucose concentration was monitored continuously as was plasma insulin response. In the control studies, the 5 dogs underwent the 3 hour hyperglycemic clamp. On a separate occasion, the same animals underwent a 3 hour hyperglycemic clamp in which GLP-1 (32-36) was infused beginning in the second hour.
Myocardial glucose uptake is calculated as the product of the difference in the arterial-coronary sinus glucose content and the average coronary blood flow. The increase in myocardial glucose uptake is in excess of that attributable to the increase in coronary blood flow alone.

Substance: Glu-Gly-Thr-Phe-Thr-Ser-Asp-Val-Ser-Ser-Tyr-Leu-Glu-Gly-Gln-Ala-Ala-Lys-Glu-Phe-Ile-Ala-Trp-Leu-Val-Lys-Gly-Arg (EGTFTSDVSSYLEGQAAKEFIAWLVKGR-NH2) [GLP-1 (9-36) amide]
- LV systolic and diastolic function [1]: mitigated the declines
- coronary blood flow [1]: preserved
- renal blood flow [1]: preserved
- systemic vascular resistance [1]: mitigated the declines in LV systolic and diastolic function and the rise
- phosphorylation and activation of AMP kinase ([2]; 60 minutes of perfusion): increased the phosphorylation and the activation of AMP kinase
- AMPK activation in presence of EXE (inhibits activation of the GLP-1 receptor) [2]: GLP-1 receptor independent
- AMPK activation in presence of EXE (inhibits activation of the GLP-1 receptor) ([2]; listed as GLP-1 (9-36)): not blocked
- AMPK activation under neuroendopeptidase inhibition (NEPI) ([2]; with NEPI): abolished
- AMPK activation in presence of pertussus toxin (PTX) [2]: pertussus toxin (Gi) and Ca-Calmodulin dependent
- AMPK activation in presence of pertussus toxin (PTX) ([2]; listed as GLP-1 (9-36)): blocked by pertussus toxin
- AMPK activation in presence of STO609 (CAM kinase) [2]: pertussus toxin (Gi) and Ca-Calmodulin dependent
- AMPK activation in presence of STO609 (CAM kinase) ([2]; listed as GLP-1 (9-36)): blocked by STO609
- preconditioning donor organs against ischemic injury [3]: active
- stimulating glucose uptake into myocardium in a non-insulin dependent fashion [3]: active
- coronary blood flow [4]: preserved coronary and renal blood flow to a greater extent than seen in control
- renal blood flow [4]: preserved coronary and renal blood flow to a greater extent than seen in control

Substance: Glucagon-like peptide-1 [GLP-1]
- active half-life time [5]: 1 to 2 min
- half-life time in blood [5]: ≤ 5 min

Substance: His-Ala-Glu-Gly-Thr-Phe-Thr-Ser-Asp-Val-Ser-Ser-Tyr-Leu-Glu-Gly-Gln-Ala-Ala-Lys-Glu-Phe-Ile-Ala-Trp-Leu-Val-Lys-Gly-Arg [GLP-1 (7-36) amide]
- functional outcomes [6]: improved functional outcomes
- LV systolic and diastolic function [1]: mitigated the declines
- coronary blood flow [1]: preserved
- renal blood flow [1]: preserved
- systemic vascular resistance [1]: mitigated the declines in LV systolic and diastolic function and the rise
- elevated levels of plasma glucagon [7]: suppresses
- insulin action [7]: augments
- benefit [8]: no benefit
- expression of mitochondrial uncoupling protein 3 (UCP-3) and mitochondrial cytochrome oxidase (Complex IV) ([9]; in vivo, iv): increased
- mitochondrial reactive oxygen species (ROS) generation ([9]; in vivo): decreased
- cell survival pathways (ras dependent activation of p38 MAP kinase, induction of NOS2) ([9]; independent of insulin signaling pathways): activates
- coronary blood flow [4]: preserved coronary and renal blood flow to a greater extent than seen in control
- renal blood flow [4]: preserved coronary and renal blood flow to a greater extent than seen in control

Substance: Leu-Val-Lys-Gly-Arg (LVKGR-NH2) [GLP-1 (32-36) amide]
- increase in coronary blood flow ([10]; 3 hour hyperglycemic clamp, plasma glucose 180 mg/dl, peptide infused beginning in the second hour, vs control clamp): significantly greater increase
- increase in myocardial glucose uptake ([10]; hyperglycemic clamp, matched hyperinsulinemia, vs control): significantly greater increase
- preconditioning donor organs against ischemic injury [3]: active
- stimulating glucose uptake into myocardium in a non-insulin dependent fashion [3]: active
